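48-hour exposure; five concentrations; linearly interpolated endpoints. GI50 = concentration required for 50% inhibition of growth. TGI denotes the concentration required for complete inhibition of growth.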
Key:
Experiment in all cases: inhibition of tumour cell growth, NCI panel, 48 h
T-47D breast = test system: T-47D breast
SK-MEL-2 melanoma = test system: SK-MEL-2 melanoma
SF-295 CNS = test system: SF-295 CNS
NCI-H23 lung = test system: NCI-H23 lung
PC-3 prostate = test system: PC-3 prostate
M14 melanoma = test system: M14 melanoma
RPMI-8226 leukemia = test system: RPMI-8226 leukemia
HOP-92 NSCLC = test system: HOP-92 NSCLC
MALME-3M melanoma = test system: MALME-3M melanoma
MDA-MB-435 = test system: MDA-MB-435
HL-60(TB) leukemia = test system: HL-60(TB) leukemia
CCRF-CEM leukemia = test system: CCRF-CEM leukemia
K-562 leukemia = test system: K-562 leukemia
A549 NSCLC = test system: A549 NSCLC
SF-539 CNS = test system: SF-539 CNS
HCT-15 colon = test system: HCT-15 colon
HS 578T breast = test system: HS 578T breast
RXF 393 renal = test system: RXF 393 renal
HCC-2998 colon = test system: HCC-2998 colon
UO-31 renal = test system: UO-31 renal
SN12C renal = test system: SN12C renal
MOLT-4 leukemia = test system: MOLT-4 leukemia
ACHN renal = test system: ACHN renal
U251 CNS = test system: U251 CNS
NCI-H226 lung = test system: NCI-H226 lung
TK-10 renal = test system: TK-10 renal
HT29 colon = test system: HT29 colon
DU-145 prostate = test system: DU-145 prostate
SK-MEL-28 melanoma = test system: SK-MEL-28 melanoma
HOP-62 NSCLC = test system: HOP-62 NSCLC
KM12 colon = test system: KM12 colon
SF-268 CNS = test system: SF-268 CNS
UACC-62 melanoma = test system: UACC-62 melanoma
OVCAR-3 ovarian = test system: OVCAR-3 ovarian
NCI-H460 lung = test system: NCI-H460 lung
NCI-H522 lung = test system: NCI-H522 lung
IGROV1 ovarian = test system: IGROV1 ovarian
SR leukemia = test system: SR leukemia
BT-549 breast = test system: BT-549 breast
MDA-MB-231 breast = test system: MDA-MB-231 breast
SNB-19 CNS = test system: SNB-19 CNS
A498 renal = test system: A498 renal
786-0 renal = test system: 786-0 renal
UACC-257 melanoma = test system: UACC-257 melanoma
OVCAR-8 ovarian = test system: OVCAR-8 ovarian
SK-OV-3 ovarian = test system: SK-OV-3 ovarian
OVCAR-5 ovarian = test system: OVCAR-5 ovarian
LOX IMVI melanoma = test system: LOX IMVI melanoma
HCT-116 colon = test system: HCT-116 colon
SW-620 colon = test system: SW-620 colon
MCF7 breast = test system: MCF7 breast
COLO 205 colon = test system: COLO 205 colon
SK-MEL-5 melanoma = test system: SK-MEL-5 melanoma

## CSCCCNC(=O)c1ccc2c(c1)/C(=C/c1[nH]c(C)cc1C)C(=O)N2
T-47D breast
  GI50: 0.465 µM
  TGI: > 100 µM
SK-MEL-2 melanoma
  GI50: 0.356 µM
  TGI: 4.42 µM
SF-295 CNS
  GI50: 2.15 µM
  TGI: > 100 µM
NCI-H23 lung
  GI50: 1.59 µM
  TGI: > 100 µM
PC-3 prostate
  GI50: 0.647 µM
  TGI: > 100 µM
M14 melanoma
  GI50: 0.284 µM
  TGI: > 100 µM
RPMI-8226 leukemia
  GI50: 1.68 µM
  TGI: > 100 µM
HOP-92 NSCLC
  GI50: 1.03 µM
  TGI: > 100 µM
MALME-3M melanoma
  GI50: 0.597 µM
  TGI: > 100 µM
MDA-MB-435
  GI50: 0.856 µM
  TGI: > 100 µM
HL-60(TB) leukemia
  GI50: 2.54 µM
  TGI: > 100 µM
CCRF-CEM leukemia
  GI50: 4.36 µM
  TGI: > 100 µM
K-562 leukemia
  GI50: 2.01 µM
  TGI: > 100 µM
A549 NSCLC
  GI50: 2.75 µM
  TGI: > 100 µM
SF-539 CNS
  GI50: 0.734 µM
  TGI: > 100 µM
HCT-15 colon
  GI50: 0.44 µM
  TGI: > 100 µM
HS 578T breast
  GI50: 0.853 µM
  TGI: > 100 µM
RXF 393 renal
  GI50: 0.977 µM
  TGI: 37.1 µM
HCC-2998 colon
  GI50: 4.95 µM
  TGI: > 100 µM
UO-31 renal
  GI50: 0.347 µM
  TGI: > 100 µM
SN12C renal
  GI50: 0.571 µM
  TGI: > 100 µM
MOLT-4 leukemia
  GI50: 1.7 µM
  TGI: > 100 µM
ACHN renal
  GI50: 0.299 µM
  TGI: > 100 µM
U251 CNS
  GI50: 0.675 µM
  TGI: > 100 µM
NCI-H226 lung
  GI50: 2.24 µM
  TGI: > 100 µM
TK-10 renal
  GI50: 6.44 µM
  TGI: > 100 µM
HT29 colon
  GI50: 4.95 µM
  TGI: > 100 µM
DU-145 prostate
  GI50: 0.7 µM
  TGI: > 100 µM
SK-MEL-28 melanoma
  GI50: 1.65 µM
  TGI: > 100 µM
HOP-62 NSCLC
  GI50: 0.286 µM
  TGI: > 100 µM
KM12 colon
  GI50: 0.43 µM
  TGI: > 100 µM
SF-268 CNS
  GI50: 1.98 µM
  TGI: > 100 µM
UACC-62 melanoma
  GI50: 0.687 µM
  TGI: > 100 µM
OVCAR-3 ovarian
  GI50: 1.98 µM
  TGI: > 100 µM
NCI-H460 lung
  GI50: 0.872 µM
  TGI: > 100 µM
NCI-H522 lung
  GI50: 0.843 µM
  TGI: > 100 µM
IGROV1 ovarian
  GI50: 0.421 µM
  TGI: > 100 µM
SR leukemia
  GI50: 0.476 µM
  TGI: 61.4 µM
BT-549 breast
  GI50: 2.7 µM
  TGI: > 100 µM
MDA-MB-231 breast
  GI50: 2.87 µM
  TGI: > 100 µM
SNB-19 CNS
  GI50: 25.6 µM
  TGI: > 100 µM
A498 renal
  GI50: 0.47 µM
  TGI: 2.7 µM
786-0 renal
  GI50: 1.93 µM
  TGI: > 100 µM
UACC-257 melanoma
  GI50: 4.67 µM
  TGI: > 100 µM
OVCAR-8 ovarian
  GI50: 1.95 µM
  TGI: > 100 µM
SK-OV-3 ovarian
  GI50: 0.366 µM
  TGI: 62.8 µM
OVCAR-5 ovarian
  GI50: 3.85 µM
  TGI: > 100 µM
LOX IMVI melanoma
  GI50: 1.02 µM
  TGI: > 100 µM
HCT-116 colon
  GI50: 0.548 µM
  TGI: > 100 µM
SW-620 colon
  GI50: 0.846 µM
  TGI: > 100 µM
MCF7 breast
  GI50: 4.05 µM
  TGI: > 100 µM
COLO 205 colon
  GI50: 0.943 µM
  TGI: > 100 µM
SK-MEL-5 melanoma
  GI50: 1.57 µM
  TGI: > 100 µM
